Measured values taken from ChEMBL document CHEMBL5291721, “A preclinical secondary pharmacology resource illuminates target-adverse drug reaction associations of marketed drugs” (Nat Commun, 2023).

Legend:
[1] = biological target: 5-hydroxytryptamine receptor 2A (Homo sapiens, UniProt P28223); format: functional, cell-based
[2] = biological target: T1, Gamma-aminobutyric acid receptor subunit alpha-1/alpha-2/beta-2/gamma-2 (Homo sapiens, UniProt P14867+P18507+P47869+P47870); format: functional, cell-based
T1 sequence (P14867 whole entry): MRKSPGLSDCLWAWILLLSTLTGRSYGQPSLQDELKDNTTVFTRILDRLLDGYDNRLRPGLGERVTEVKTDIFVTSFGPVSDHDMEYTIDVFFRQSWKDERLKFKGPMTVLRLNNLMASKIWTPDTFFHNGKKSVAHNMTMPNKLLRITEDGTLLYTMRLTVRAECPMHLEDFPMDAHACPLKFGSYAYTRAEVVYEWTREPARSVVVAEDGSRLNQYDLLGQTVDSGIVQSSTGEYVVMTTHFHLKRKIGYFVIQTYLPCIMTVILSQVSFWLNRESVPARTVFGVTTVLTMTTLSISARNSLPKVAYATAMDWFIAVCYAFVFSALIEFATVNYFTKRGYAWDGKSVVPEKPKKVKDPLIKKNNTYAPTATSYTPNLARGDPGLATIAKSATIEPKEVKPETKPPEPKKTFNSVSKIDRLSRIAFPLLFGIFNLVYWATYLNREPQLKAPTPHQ
T1 sequence (P47870 whole entry): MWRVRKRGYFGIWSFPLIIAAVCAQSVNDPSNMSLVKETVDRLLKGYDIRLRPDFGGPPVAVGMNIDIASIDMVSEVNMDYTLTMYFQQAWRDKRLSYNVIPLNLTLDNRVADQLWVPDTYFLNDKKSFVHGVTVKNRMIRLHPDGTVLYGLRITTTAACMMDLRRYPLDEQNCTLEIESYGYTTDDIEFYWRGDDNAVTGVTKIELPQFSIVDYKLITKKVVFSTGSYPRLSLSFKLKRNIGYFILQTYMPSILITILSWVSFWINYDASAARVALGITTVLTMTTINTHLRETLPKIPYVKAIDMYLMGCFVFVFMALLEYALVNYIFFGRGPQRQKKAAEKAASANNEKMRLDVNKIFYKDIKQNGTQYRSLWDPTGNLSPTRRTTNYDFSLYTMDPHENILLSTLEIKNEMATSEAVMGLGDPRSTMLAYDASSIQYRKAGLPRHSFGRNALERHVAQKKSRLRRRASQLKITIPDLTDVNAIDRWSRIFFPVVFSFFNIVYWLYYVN
T1 sequence (P18507 whole entry): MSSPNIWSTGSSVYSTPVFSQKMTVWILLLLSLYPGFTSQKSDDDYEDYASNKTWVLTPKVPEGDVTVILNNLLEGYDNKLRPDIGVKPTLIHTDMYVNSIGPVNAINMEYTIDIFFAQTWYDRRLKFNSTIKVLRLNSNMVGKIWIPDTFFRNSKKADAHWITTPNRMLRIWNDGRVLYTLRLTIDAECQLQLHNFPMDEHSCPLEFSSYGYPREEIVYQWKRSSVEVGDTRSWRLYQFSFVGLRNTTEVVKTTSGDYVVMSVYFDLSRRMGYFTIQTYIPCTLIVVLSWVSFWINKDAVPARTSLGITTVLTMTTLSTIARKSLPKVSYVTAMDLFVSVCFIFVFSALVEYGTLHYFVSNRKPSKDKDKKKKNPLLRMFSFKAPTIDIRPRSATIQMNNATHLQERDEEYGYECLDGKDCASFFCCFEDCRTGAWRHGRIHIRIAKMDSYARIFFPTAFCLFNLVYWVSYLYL
T1 sequence (P47869 whole entry): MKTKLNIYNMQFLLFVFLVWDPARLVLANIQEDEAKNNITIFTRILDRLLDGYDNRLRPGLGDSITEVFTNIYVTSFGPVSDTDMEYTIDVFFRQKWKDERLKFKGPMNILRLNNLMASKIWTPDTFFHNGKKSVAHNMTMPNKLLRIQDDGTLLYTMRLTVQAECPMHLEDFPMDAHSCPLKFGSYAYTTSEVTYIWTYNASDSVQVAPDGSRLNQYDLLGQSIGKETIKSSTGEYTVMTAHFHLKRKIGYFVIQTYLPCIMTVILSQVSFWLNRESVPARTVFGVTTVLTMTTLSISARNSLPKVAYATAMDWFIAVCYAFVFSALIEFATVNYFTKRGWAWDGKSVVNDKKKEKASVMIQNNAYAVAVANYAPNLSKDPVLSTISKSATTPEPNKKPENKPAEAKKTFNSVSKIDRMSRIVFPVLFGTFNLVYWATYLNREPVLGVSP

[3] = biological target: Muscarinic acetylcholine receptor M3 (Homo sapiens, UniProt P20309)
Muscarinic acetylcholine receptor M3, sequence (P20309 whole entry): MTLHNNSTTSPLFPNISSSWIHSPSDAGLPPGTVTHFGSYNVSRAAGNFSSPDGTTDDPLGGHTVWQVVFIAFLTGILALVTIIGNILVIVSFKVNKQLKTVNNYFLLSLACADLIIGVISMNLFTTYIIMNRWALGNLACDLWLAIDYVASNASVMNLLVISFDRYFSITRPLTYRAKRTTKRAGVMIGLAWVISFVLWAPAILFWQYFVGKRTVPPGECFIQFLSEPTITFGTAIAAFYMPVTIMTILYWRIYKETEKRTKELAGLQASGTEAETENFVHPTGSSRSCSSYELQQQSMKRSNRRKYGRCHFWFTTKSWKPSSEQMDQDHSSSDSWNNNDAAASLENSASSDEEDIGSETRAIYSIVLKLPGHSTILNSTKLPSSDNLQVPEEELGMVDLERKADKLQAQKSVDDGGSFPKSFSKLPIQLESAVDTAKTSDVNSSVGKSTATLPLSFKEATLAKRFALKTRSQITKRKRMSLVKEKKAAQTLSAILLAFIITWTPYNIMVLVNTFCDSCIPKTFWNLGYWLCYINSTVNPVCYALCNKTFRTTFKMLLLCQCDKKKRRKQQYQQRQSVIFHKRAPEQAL

[4] = biological target: Histamine H1 receptor (Homo sapiens, UniProt P35367)
Histamine H1 receptor, sequence (P35367 whole entry): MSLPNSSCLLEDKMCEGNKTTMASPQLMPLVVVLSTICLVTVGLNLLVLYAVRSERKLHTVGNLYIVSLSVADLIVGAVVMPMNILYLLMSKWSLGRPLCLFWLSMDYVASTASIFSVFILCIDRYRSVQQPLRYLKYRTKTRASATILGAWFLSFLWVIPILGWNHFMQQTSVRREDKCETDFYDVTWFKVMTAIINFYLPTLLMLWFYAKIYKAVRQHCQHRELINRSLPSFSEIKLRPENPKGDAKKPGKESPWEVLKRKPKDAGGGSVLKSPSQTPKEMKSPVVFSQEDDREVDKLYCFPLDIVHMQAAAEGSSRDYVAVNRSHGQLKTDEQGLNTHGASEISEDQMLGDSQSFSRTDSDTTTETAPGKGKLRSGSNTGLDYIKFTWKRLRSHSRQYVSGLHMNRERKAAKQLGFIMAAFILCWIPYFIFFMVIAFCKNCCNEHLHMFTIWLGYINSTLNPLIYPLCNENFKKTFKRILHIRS

[5] = biological target: T1, Gamma-aminobutyric acid receptor subunit alpha-1/alpha-2/beta-2/gamma-2; format: protein-complex assay
[6] = biological target: T2, Glucocorticoid receptor (Homo sapiens, UniProt P04150)
T2 sequence (P04150 whole entry): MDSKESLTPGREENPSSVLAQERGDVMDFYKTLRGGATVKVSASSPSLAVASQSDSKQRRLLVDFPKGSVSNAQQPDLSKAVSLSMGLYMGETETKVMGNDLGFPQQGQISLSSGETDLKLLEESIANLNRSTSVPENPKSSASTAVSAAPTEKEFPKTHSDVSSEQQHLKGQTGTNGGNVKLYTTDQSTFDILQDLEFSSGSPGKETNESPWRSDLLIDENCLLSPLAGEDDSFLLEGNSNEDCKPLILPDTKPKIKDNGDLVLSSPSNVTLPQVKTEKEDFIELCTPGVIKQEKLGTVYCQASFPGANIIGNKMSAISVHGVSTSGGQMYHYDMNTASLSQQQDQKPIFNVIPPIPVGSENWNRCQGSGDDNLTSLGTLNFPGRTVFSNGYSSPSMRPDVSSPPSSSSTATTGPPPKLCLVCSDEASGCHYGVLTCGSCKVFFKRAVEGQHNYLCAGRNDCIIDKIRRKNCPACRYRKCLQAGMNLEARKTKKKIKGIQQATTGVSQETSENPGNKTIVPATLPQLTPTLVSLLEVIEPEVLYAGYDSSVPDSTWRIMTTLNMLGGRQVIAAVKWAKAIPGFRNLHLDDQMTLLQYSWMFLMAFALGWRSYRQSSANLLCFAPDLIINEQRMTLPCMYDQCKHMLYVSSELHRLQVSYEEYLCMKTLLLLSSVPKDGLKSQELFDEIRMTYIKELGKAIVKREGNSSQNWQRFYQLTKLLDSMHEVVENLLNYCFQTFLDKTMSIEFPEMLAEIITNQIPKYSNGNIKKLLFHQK

[7] = biological target: Voltage-dependent L-type calcium channel subunit alpha-1C (Rattus norvegicus, UniProt P22002); format: functional
[8] = biological target: Melanocortin receptor 4 (Homo sapiens, UniProt P32245)
Melanocortin receptor 4, sequence (P32245 whole entry): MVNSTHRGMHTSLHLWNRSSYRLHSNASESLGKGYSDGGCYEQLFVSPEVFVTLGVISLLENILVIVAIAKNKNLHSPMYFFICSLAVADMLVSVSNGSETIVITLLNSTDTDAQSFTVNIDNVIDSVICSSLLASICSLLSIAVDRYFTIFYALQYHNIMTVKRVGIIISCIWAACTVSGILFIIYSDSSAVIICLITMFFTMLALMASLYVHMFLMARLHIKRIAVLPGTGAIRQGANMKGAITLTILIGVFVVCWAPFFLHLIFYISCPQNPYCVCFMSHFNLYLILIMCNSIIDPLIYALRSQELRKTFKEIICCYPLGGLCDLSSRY

[9] = biological target: Cannabinoid receptor 1 (Homo sapiens, UniProt P21554)
Cannabinoid receptor 1, sequence (P21554 whole entry): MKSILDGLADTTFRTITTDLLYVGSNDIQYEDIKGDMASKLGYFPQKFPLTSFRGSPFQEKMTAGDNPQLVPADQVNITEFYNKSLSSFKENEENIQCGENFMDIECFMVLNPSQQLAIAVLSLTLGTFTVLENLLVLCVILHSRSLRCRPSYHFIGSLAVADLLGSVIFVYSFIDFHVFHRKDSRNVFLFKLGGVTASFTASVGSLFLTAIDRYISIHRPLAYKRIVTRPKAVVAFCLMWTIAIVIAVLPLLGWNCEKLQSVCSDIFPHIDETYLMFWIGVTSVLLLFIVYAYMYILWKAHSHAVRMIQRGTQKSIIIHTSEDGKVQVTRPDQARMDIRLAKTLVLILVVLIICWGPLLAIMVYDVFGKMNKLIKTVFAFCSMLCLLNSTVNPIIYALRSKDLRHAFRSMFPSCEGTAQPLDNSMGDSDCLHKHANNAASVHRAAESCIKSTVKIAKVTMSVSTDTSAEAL

[10] = biological target: Glucagon receptor (Homo sapiens, UniProt P47871)
[11] = biological target: T3, Corticotropin-releasing factor receptor 1 (Homo sapiens, UniProt P34998)
T3 sequence (P34998 whole entry): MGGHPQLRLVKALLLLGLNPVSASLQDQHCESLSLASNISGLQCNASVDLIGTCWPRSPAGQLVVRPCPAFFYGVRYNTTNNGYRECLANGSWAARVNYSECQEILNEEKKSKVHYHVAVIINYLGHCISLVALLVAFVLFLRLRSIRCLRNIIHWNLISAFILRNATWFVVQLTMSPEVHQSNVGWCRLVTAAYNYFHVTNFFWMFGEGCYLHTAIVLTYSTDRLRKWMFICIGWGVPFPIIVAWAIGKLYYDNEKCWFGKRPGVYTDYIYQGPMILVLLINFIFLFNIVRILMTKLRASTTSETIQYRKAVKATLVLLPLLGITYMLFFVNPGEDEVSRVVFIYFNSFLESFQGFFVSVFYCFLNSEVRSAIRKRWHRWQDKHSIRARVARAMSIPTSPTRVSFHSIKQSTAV

[12] = biological target: Neurotensin receptor type 1 (Homo sapiens, UniProt P30989)
Neurotensin receptor type 1, sequence (P30989 whole entry): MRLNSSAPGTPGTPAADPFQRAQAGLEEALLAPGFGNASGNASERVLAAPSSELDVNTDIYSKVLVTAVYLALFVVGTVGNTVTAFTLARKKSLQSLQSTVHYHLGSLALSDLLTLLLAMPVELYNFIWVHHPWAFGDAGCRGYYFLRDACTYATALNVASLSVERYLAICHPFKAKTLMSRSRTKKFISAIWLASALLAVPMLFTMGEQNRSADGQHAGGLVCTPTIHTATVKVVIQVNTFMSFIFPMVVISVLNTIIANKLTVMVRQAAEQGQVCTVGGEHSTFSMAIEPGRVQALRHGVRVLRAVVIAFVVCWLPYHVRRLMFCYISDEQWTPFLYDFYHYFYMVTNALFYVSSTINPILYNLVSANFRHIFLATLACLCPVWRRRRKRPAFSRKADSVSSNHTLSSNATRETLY
Further: assay procedure not described here.

5-hydroxytryptamine receptor 2A, sequence (P28223 whole entry): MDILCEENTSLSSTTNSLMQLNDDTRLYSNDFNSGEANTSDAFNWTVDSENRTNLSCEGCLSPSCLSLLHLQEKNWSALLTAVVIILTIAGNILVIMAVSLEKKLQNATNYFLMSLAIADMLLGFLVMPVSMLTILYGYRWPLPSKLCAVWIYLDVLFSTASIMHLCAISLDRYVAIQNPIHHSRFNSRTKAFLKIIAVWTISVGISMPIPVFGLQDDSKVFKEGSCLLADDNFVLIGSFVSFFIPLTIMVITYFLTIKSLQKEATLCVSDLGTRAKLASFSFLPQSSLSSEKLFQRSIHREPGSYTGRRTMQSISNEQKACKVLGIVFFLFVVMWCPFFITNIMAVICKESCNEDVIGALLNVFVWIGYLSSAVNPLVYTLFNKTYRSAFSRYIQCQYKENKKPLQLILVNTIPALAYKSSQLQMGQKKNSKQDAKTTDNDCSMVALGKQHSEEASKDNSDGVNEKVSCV

`CCOc1cc([C@@H](CS(C)(=O)=O)N2C(=O)c3cccc(NC(C)=O)c3C2=O)ccc1OC` gave an AC50 [1] of over 30 µM, an AC50 [2] of over 30 µM and an AC50 [3] of over 30 µM. It also gave an AC50 [4] of over 30 µM.

`CC(=O)NCCCCCC(=O)O` [ACEXAMIC ACID] gave an AC50 [5] of over 30 µM.

In the case of `CC(=O)Nc1ccc(CC(=O)O)cc1` [ACTARIT], the AC50 [1] is reported as over 30 µM, the AC50 [3] is reported as over 30 µM and the AC50 [6] is reported as over 30 µM. For the same compound, the AC50 [4] was over 30 µM and the AC50 [7] was over 30 µM.

`C=C(C)CNc1ccc(C(C)C(=O)O)cc1` (stereo not given) [ALMINOPROFEN] gave an AC50 [5] of over 30 µM.

With `C[C@H]1CN(C[C@H](Cc2ccccc2)C(=O)NCC(=O)O)CC[C@@]1(C)c1cccc(O)c1` [ALVIMOPAN] the AC50 [5] was over 30 µM.

`CC(C(=O)O)c1ccc2oc(-c3ccc(Cl)cc3)nc2c1` (stereo not given) [BENOXAPROFEN] was tested, and the AC50 [6] was over 30 µM and the AC50 [7] was over 30 µM.

With `O=C(O)c1ccccc1` [BENZOIC ACID] the AC50 [5] was over 30 µM.

In the case of `CC1(C)S[C@@H]2[C@H](NC(=O)C(C(=O)O)c3ccccc3)C(=O)N2[C@H]1C(=O)O` (stereo not given in full) [CARBENICILLIN], the AC50 [1] is reported as over 30 µM, the AC50 [2] is reported as over 30 µM and the AC50 [3] is reported as over 30 µM. It also gave an AC50 [6] of over 30 µM and an AC50 [4] of over 30 µM.

Work on `Cc1nnc(SCC2=C(C(=O)O)N3C(=O)[C@@H](NC(=O)Cn4cnnn4)[C@H]3SC2)s1` [CEFAZOLIN] yielded an AC50 [1] of over 30 µM, an AC50 [2] of over 2400 µM and an AC50 [3] of over 300 µM. It also gave an AC50 [4] of over 300 µM.

In the case of `CC=CC1=C(C(=O)O)N2C(=O)[C@@H](NC(=O)[C@H](N)c3ccc(O)cc3)[C@H]2SC1` [CEFPROZIL], the AC50 [1] is reported as over 30 µM, the AC50 [3] is reported as over 30 µM and the AC50 [6] is reported as over 30 µM. The AC50 [8] was over 30 µM, the AC50 [4] was over 30 µM and the AC50 [9] was over 30 µM. It also gave an AC50 [7] of over 30 µM.

`CC(C)(O/N=C(\C(=O)N[C@@H]1C(=O)N2C(C(=O)[O-])=C(C[n+]3ccccc3)CS[C@H]12)c1csc(N)n1)C(=O)O` [CEFTAZIDIME] showed an AC50 [1] of over 30 µM, an AC50 [2] of over 2400 µM and an AC50 [3] of over 300 µM. For the same compound, the AC50 [6] was over 30 µM and the AC50 [4] was over 300 µM.

For `CCCNC(=O)NS(=O)(=O)c1ccc(Cl)cc1` [CHLORPROPAMIDE], the AC50 [6] was over 30 µM, the AC50 [10] was over 30 µM and the AC50 [8] was over 30 µM. For the same compound, the AC50 [11] was over 30 µM, the AC50 [9] was over 10 µM and the AC50 [7] was over 10 µM. The AC50 [12] was over 30 µM.

`Cc1cc(C2CCCCC2)n(O)c(=O)c1` [CICLOPIROX] was tested, and the AC50 [5] was over 30 µM.

Compound `Clc1ccc(Cn2c(CN3CCCC3)nc3ccccc32)cc1` [CLEMIZOLE] has an AC50 [1] of 15 µM, an AC50 [2] of over 30 µM and an AC50 [3] of over 30 µM. The AC50 [4] was 0.0034 µM.

`CCC(=O)O[C@]1(C(=O)CCl)[C@@H](C)C[C@H]2[C@@H]3CCC4=CC(=O)C=C[C@]4(C)[C@@]3(F)[C@@H](O)C[C@@]21C` [CLOBETASOL PROPIONATE] showed an AC50 [6] of 0.0078 µM.

With `C[C@H]1O[C@@H](O[C@H]2CC[C@@]3(C)[C@H](CC[C@@H]4[C@@H]3C[C@@H](O)[C@]3(C)[C@@H](C5=CC(=O)OC5)CC[C@]43O)C2)C[C@H](O)[C@@H]1O[C@H]1C[C@H](O)[C@H](O[C@H]2C[C@H](O)[C@H](O[C@@H]3O[C@H](CO)[C@@H](O)[C@H](O)[C@H]3O)[C@@H](C)O2)[C@@H](C)O1` [DESLANOSIDE] the AC50 [5] was over 30 µM.

In the case of `CC(C)Cc1ccc([C@H](C)C(=O)O)cc1` [DEXIBUPROFEN], the AC50 [2] is reported as over 30 µM.

Work on `CC(C(=O)O)c1cccc(Oc2ccccc2)c1` (stereo not given) [FENOPROFEN] yielded an AC50 [5] of over 30 µM.

For `Cc1onc(-c2c(F)cccc2Cl)c1C(=O)N[C@@H]1C(=O)N2[C@@H]1SC(C)(C)[C@@H]2C(=O)O` [FLOXACILLIN], the AC50 [1] was over 30 µM, the AC50 [2] was over 30 µM and the AC50 [3] was over 30 µM. For the same compound, the AC50 [4] was over 30 µM.

`CC1(C)O[C@@H]2C[C@H]3[C@@H]4C[C@H](F)C5=CC(=O)C=C[C@]5(C)[C@@]4(F)[C@@H](O)C[C@]3(C)[C@]2(C(=O)CO)O1` [FLUOCINOLONE ACETONIDE] gave an AC50 [5] of over 30 µM.

`N=C(N)N/N=C/c1c(Cl)cccc1Cl` [GUANABENZ] showed an AC50 [5] of over 30 µM.

`CCCCCCCN(CC)CCCC(O)c1ccc(NS(C)(=O)=O)cc1` (stereo not given) [IBUTILIDE] showed an AC50 [1] of 25 µM, an AC50 [3] of 21 µM and an AC50 [6] of over 30 µM. For the same compound, the AC50 [4] was over 30 µM, the AC50 [9] was over 30 µM and the AC50 [7] was over 30 µM.

Work on `CC(C)[C@@H]1CC[C@@H](C)C[C@H]1O` [LEVOMENTHOL] yielded an AC50 [5] of over 30 µM.

`C[N+]1(C)CCCC(OC(=O)C(O)(c2ccccc2)c2ccccc2)C1` (stereo not given) [MEPENZOLATE] was tested, and the AC50 [5] was over 30 µM.

Compound `CC[C@@H](CO)NC(=O)[C@@H]1C=C2c3cccc4c3c(cn4C)C[C@H]2N(C)C1` [METHYSERGIDE] has an AC50 [10] of over 30 µM, an AC50 [8] of over 30 µM and an AC50 [11] of over 30 µM. For the same compound, the AC50 [9] was over 10 µM, the AC50 [7] was over 10 µM and the AC50 [12] was over 30 µM.

`CN(C)c1ccc(O)c2c1C[C@H]1C[C@H]3[C@H](N(C)C)C(O)=C(C(N)=O)C(=O)[C@@]3(O)C(O)=C1C2=O` [MINOCYCLINE] was tested, and the AC50 [5] was over 30 µM.

With `CCNC(=O)/C=C(C)/C=C/C=C(C)/C=C/c1c(C)cc(OC)c(C)c1C` [MOTRETINIDE] the AC50 [5] was over 30 µM.

`CNC(=C[N+](=O)[O-])NCCSCc1csc(CN(C)C)n1` [NIZATIDINE] was tested, and the AC50 [6] was over 10 µM, the AC50 [8] was over 10 µM and the AC50 [9] was over 10 µM. For the same compound, the AC50 [7] was over 10 µM.

`CN1Cc2c(N)cccc2C(c2ccccc2)C1` (stereo not given) [NOMIFENSINE] showed an AC50 [1] of 15 µM, an AC50 [2] of over 30 µM and an AC50 [3] of over 30 µM. The AC50 [6] was over 30 µM and the AC50 [4] was 30 µM.

`COc1ccc2[nH]c([S+]([O-])Cc3ncc(C)c(OC)c3C)nc2c1` (stereo not given) [OMEPRAZOLE] was tested, and the AC50 [5] was over 30 µM.

In the case of `CCCc1cc(=O)[nH]c(=S)[nH]1` [PROPYLTHIOURACIL], the AC50 [8] is reported as over 10 µM, the AC50 [9] is reported as over 10 µM and the AC50 [7] is reported as over 10 µM.

With `Cn1cc(C(=O)[C@@H]2CCc3nc[nH]c3C2)c2ccccc21` [RAMOSETRON] the AC50 [1] was over 30 µM, the AC50 [3] was over 30 µM and the AC50 [6] was over 30 µM. It also gave an AC50 [4] of over 30 µM and an AC50 [7] of over 30 µM.

For `C[N+](C)(C)CCOC(=O)CCC(=O)OCC[N+](C)(C)C` [SUXAMETHONIUM], the AC50 [5] was over 30 µM.

`S=P(N1CC1)(N1CC1)N1CC1` [THIOTEPA] was tested, and the AC50 [2] was over 30 µM and the AC50 [3] was 9.3 µM.

Work on `Cc1ccsc1C(=CCCN1CCC[C@@H](C(=O)O)C1)c1sccc1C` [TIAGABINE] yielded an AC50 [5] of over 30 µM.

Work on `Cc1ccc(C(=O)c2ccc(CC(=O)O)n2C)cc1` [TOLMETIN] yielded an AC50 [5] of over 30 µM.

Compound `Cc1ccccc1C(=O)Nc1ccc(C(=O)N2CCCC(O)c3cc(Cl)ccc32)c(C)c1` (stereo not given) [TOLVAPTAN] has an AC50 [5] of over 30 µM.

Work on `C[C@]12C=CC(=O)C=C1CC[C@H]1[C@@H]3C[C@@H](O)[C@](O)(C(=O)CO)[C@@]3(C)C[C@H](O)[C@@]12F` [TRIAMCINOLONE] yielded an AC50 [6] of 0.0091 µM and an AC50 [5] of over 30 µM.

For `CCC1=C[C@@H]2CN(C1)Cc1c([nH]c3ccccc13)[C@@](C(=O)OC)(c1cc3c(cc1OC)N(C)[C@H]1[C@@](O)(C(=O)OC)[C@H](OC(C)=O)[C@]4(CC)C=CCN5CC[C@]31[C@@H]54)C2` [VINORELBINE], the AC50 [5] was over 30 µM.

For `COc1cc(C(=O)NS(=O)(=O)c2ccccc2C)ccc1Cc1cn(C)c2ccc(NC(=O)OC3CCCC3)cc12` [ZAFIRLUKAST], the AC50 [6] was 24.9 µM, the AC50 [8] was over 10 µM and the AC50 [9] was over 10 µM. It also gave an AC50 [7] of over 10 µM.
